“Also recorded” adds a separate entry of the source.
Tests used:
[1] = system: DOCA/saline pre-treated rats with isoproterenol-induced arrhythmia; assay: Arrhythmic reversal studies (established isoproterenol arrhythmia); format: in vivo, rat; details: i.v. bolus at one-half of the effective s.c. dose, five minutes after isoproterenol
Description: The animals were implanted with a 25 mg pellet of DOCA and maintained on the 1% saline as their drinking fluid as discussed above. The animals were anesthetized with Avertin and prepared for the recording of blood pressure and the EKG. In addition, the animal's left jugular vein was also cannulated with PE-50 tubing. The tubings were filled with saline and exteriorized dorsally between the animal's shoulders. Isoproterenol was administered s.c. at a dose of 150 μg/kg and an arrhythmia was allowed to develop for five minutes. […] Continuous blood pressure, heart rate and EKG readings were obtained. Additional Avertin was given as needed to maintain anesthesia. The hearts of the animals were perfused with buffered formalin immediately after the onset of ventricular fibrillation or one hour after the administration of isoproterenol.
(§1) Two kinds of anti-arrhythmic experiments were carried out, both prophylaxis and reversal studies. DOCA-treated animals were either first given the test compounds s.c. followed twenty minutes later by isoproterenol (prevention studies) or isoproterenol followed by the test compound given intravenously after five minutes (reversal studies). The time frames were chosen based on two issues: previous experience with the pharmacokinetics of polyamine analogues and the time required for isoproterenol to induce cardiac abnormalities and death in DOCA-treated rodents.

[2] = system: DOCA/saline pre-treated rats challenged with isoproterenol; assay: Prevention of isoproterenol-induced arrhythmia and mortality in DOCA/saline pre-treated rats; format: in vivo, rat; details: for % SURVIVAL / ARRHYTHMIA (number of animals): 20 min before isoproterenol 150 μg/kg s.c.
Description: Briefly, rats were anesthetized with sodium pentobarbital (55 mg/kg. i.p.), and a 25 mg pellet of desoxycorticosterone acetate (DOCA) was implanted s.c. in the axillary region. The rats were allowed to recover from the anesthetic and returned to their home cages. The animals were given commercial rat chow and a 1% solution of saline as their drinking fluid ad libitum. The animals were maintained on this regimen for approximately thirty days.
Twenty minutes later, the rats were challenged with a single s.c. dose of isoproterenol, 150 μg/kg. The animals were closely monitored for one hour and any obvious arrhythmic episodes or mortalities were recorded.
as §1

[3] = system: mice exposed to deep chloroform anesthesia; assay: Chloroform anesthesia-induced cardiac arrhythmia (Lawson procedure); format: in vivo; details: 100 mg/kg i.p., thirty minutes before chloroform; observed 15 minutes; <2 of three = significant protection
Description: In this procedure [Lawson, J. Pharmacol. Exer. Therap., Vol. 160, pages 22-31 (1968)], the test substance [diethylhomospermine (DEHSPM)] is administered i.p. (100 mg/kg) to a group of three mice thirty minutes before exposure to deep chloroform anesthesia and observed during the ensuing 15-minute period.

[4] = system: normotensive rats; details: earlier results; cited from earlier work
[5] = system: DOCA/saline pre-treated rats; assay: Evaluation of blood pressure, heart rate and EKG in DOCA/saline rats; format: in vivo, rat; details: continuous monitoring, compound given s.c.
Description: Blood pressure and heart rate parameters, as well as an EKG, were evaluated for compounds displaying anti-arrhythmic properties. The animals were implanted with DOCA and maintained on 1% saline as their drinking fluid as discussed above. The animals were anesthetized with Avertin (tribromoethanol, 2.5%), 1 ml/100 g given i.p. and prepared for the recording of blood pressure and the EKG. To allow for the direct measurement of blood pressure, the animals's left carotid artery was cannulated with PE-50 tubing. The tubing was filled with saline and exteriorized dorsally between the animal's shoulders.
After the surgery was completed, the catheter in the carotid artery was connected to a blood pressure transducer (ADInstruments, Inc., Milford, Mass.). To allow for the recording of the EKG, 22 gauge needles were placed s.c. at the rat's left shoulder, right shoulder and left leg. The needles were then attached via alligator clips to a MacLab Bio Amplifier (ADInstruments, Inc., Milford, Mass.). […] A baseline blood pressure, heart rate and EKG were obtained, and the compound under investigation was administered s.c. Twenty minutes later, the animals were challenged with a single dose of isoproterenol, 150 μg/kg s.c. Continuous blood pressure, heart rate and EKG readings were obtained. […]

[6] = DOCA/isoproterenol-treated rats, prophylaxis

Row | SMILES | effect on survival / activity in the model (in words) [2, 6] | % SURVIVAL ([2]; dose 115 μmol/kg s.c.) | ARRHYTHMIA (number of animals) ([2]; dose 115 μmol/kg s.c.) | anti-arrhythmic properties (in words) [2, 6] | further results
1 | CC(C)NCC(O)COc1cccc2ccccc12 (racemic) [Propranolol, d,l-propranolol] |  |  |  |  | EKG pattern after treatment in reversal experiment [1]: reverted to a more normal pattern; evidence of ischemia in EKG in reversal experiment [1]: some evidence of ischemia; survival in reversal experiment [1]: survived
2 | CCNCCCCCCCCCNCC [DE(9), C2H5—NH—(CH2)9—NH—C2H5] | no activity | 0% | 5 |  | 
3 | CCNCCCCNCCCCNCCCCNCC [DEHSPM(4,4,4), diethylhomospermine] | none of the three polyamine anti-metabolites tested in this model had any effects on the survival | 0% | 5 |  | animals exhibiting cardiac arrhythmia (of three mice) [3]: one; effect on blood pressure [4]: lower blood pressure
4 | CCNCCCNCCCNCCCNCC [DENSPM(3,3,3), diethylnorspermine] | none of the three polyamine anti-metabolites tested in this model had any effects on the survival |  |  |  | effect on blood pressure [4]: lower blood pressure; % SURVIVAL ([2]; dose 231 μmol/kg s.c.): 0%; ARRHYTHMIA (number of animals) ([2]; dose 231 μmol/kg s.c.): 5
5 | CCNCCCNCCCCNCCCNCC [DESPM(3,4,3), diethylspermine] | none of the three polyamine anti-metabolites tested in this model had any effects on the survival | 0% | 5 |  | 
6 | FC(F)(F)CNCCCNCCCCNCCCNCC(F)(F)F [FDESPM, Di-β,β,β-trifluoroethylspermine] |  | 40% | 7 | some anti-arrhythmic prophylactic behavior | animals surviving ([2]; DOCA/isoproterenol-treated rats, prophylaxis, dose not given): 40%
7 | C(CNC1CCNCC1)CNC1CCNCC1 [PIP(3,3,3)] | nor was it found to be active in this model | 0% | 5 |  | 
8 | c1cc(NCCCNc2ccncc2)ccn1 [PYR(3,3,3)] |  | 100% | 2 | presented with anti-arrhythmic properties; also recorded: performed best | EKG pattern after treatment in reversal experiment [1]: reverted to a normal appearance; evidence of ischemia in EKG in reversal experiment [1]: little to no evidence of ischemia; effects on blood pressure and heart rate [5]: No appreciable effects on blood pressure and heart rate; % SURVIVAL ([2]; dose 14 μmol/kg s.c.): 40%; ARRHYTHMIA (number of animals) ([2]; dose 14 μmol/kg s.c.): 5; % SURVIVAL ([2]; dose 28 μmol/kg s.c.): 40%; ARRHYTHMIA (number of animals) ([2]; dose 28 μmol/kg s.c.): 5; % SURVIVAL ([2]; dose 59 μmol/kg s.c.): 60%; ARRHYTHMIA (number of animals) ([2]; dose 59 μmol/kg s.c.): 4
9 | c1cc(NCCCCNc2ccncc2)ccn1 [PYR(3,4,3)] |  | 60% | 2 | presented with anti-arrhythmic properties | % SURVIVAL ([2]; dose 59 μmol/kg s.c.): 60%; ARRHYTHMIA (number of animals) ([2]; dose 59 μmol/kg s.c.): 2; % SURVIVAL ([2]; dose 231 μmol/kg s.c.): 80%; ARRHYTHMIA (number of animals) ([2]; dose 231 μmol/kg s.c.): 2
10 | c1cc(CNCCCCNCc2ccncc2)ccn1 [PYR(4,4,4)] |  | 0% | 5 | presented with anti-arrhythmic properties | % SURVIVAL ([2]; dose 231 μmol/kg s.c.): 40%; ARRHYTHMIA (number of animals) ([2]; dose 231 μmol/kg s.c.): 2
11 | NCCCCN [Putrescine(4), Putrescine, reference compound] | no effect on survival | 0% | 5 |  | % SURVIVAL ([2]; dose 1240 μmol/kg s.c.): 0%; ARRHYTHMIA (number of animals) ([2]; dose 1240 μmol/kg s.c.): 5; % SURVIVAL ([2]; dose 1861 μmol/kg s.c.): 0%; ARRHYTHMIA (number of animals) ([2]; dose 1861 μmol/kg s.c.): 5

Reference: US20020045669A1, “Anti-arrhythmic composition and methods of treatment” (priority 2000, published 2002)
